The target in series [1] is panel of 68 receptors (Homo sapiens, UniProt P08172). The following applies: Muscarinic M2, hum, 10 μM.
Series [2] addresses panel of 68 receptors (Homo sapiens, UniProt P29274). The conditions noted are these: Adenosine A2A, hum, 10 μM.
The target of series [3] is panel of 68 receptors (Homo sapiens, UniProt P30542). The conditions noted are these: Adenosine A1, hum, 10 μM.
For series [4], the target named is panel of 68 receptors (Homo sapiens, UniProt P35462). The following applies: Dopamine D3, hum, 10 μM.
panel of 68 receptors (Homo sapiens, UniProt P35462), sequence (P35462 whole entry): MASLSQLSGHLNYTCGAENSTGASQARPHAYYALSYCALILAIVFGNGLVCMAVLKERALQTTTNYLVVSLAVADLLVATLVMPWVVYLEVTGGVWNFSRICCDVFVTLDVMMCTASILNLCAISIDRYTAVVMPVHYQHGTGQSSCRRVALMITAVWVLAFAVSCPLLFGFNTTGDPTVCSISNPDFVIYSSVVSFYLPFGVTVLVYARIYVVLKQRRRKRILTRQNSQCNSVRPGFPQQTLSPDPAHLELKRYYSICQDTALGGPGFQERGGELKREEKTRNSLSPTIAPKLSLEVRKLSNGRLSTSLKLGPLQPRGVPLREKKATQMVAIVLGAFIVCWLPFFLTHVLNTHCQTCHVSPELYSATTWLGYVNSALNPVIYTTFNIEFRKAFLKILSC
Series [5] deals with panel of 68 receptors (Homo sapiens, UniProt P46098). The following applies: Serotonin (5-Hydroxytryptamine) 5-HT3, hum, 10 μM.
panel of 68 receptors (Homo sapiens, UniProt P46098), sequence (P46098 24-478): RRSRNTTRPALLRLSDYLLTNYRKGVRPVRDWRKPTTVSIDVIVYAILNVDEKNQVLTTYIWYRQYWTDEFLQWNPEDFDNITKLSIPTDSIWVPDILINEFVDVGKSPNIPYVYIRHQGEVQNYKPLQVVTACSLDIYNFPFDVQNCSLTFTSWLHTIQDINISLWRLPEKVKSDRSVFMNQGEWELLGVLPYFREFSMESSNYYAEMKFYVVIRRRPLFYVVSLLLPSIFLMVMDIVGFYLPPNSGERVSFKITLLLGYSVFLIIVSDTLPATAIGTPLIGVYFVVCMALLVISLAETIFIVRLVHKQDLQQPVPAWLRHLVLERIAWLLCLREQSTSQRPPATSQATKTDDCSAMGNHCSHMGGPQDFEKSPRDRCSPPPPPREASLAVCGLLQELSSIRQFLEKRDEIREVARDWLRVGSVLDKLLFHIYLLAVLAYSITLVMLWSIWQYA
In series [6] the target is panel of 68 receptors (Homo sapiens, UniProt P46663). The conditions noted are these: Bradykinin B1, hum, 10 μM.
panel of 68 receptors (Homo sapiens, UniProt P46663), sequence (P46663 whole entry): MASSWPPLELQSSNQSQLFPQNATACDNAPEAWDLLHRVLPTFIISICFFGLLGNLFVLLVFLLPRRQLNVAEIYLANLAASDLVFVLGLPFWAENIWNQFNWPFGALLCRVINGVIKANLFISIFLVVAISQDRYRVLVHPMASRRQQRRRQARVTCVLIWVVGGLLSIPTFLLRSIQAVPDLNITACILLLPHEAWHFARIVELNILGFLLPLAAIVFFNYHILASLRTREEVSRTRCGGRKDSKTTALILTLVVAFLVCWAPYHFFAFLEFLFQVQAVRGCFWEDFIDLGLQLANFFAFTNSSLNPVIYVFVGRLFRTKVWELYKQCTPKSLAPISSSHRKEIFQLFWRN
Series [7] deals with panel of 68 receptors (Mus musculus, UniProt P13504). The conditions noted are these: Interleukin IL-1, mouse, 10 μM.
panel of 68 receptors (Mus musculus, UniProt P13504), sequence (P13504 20-576): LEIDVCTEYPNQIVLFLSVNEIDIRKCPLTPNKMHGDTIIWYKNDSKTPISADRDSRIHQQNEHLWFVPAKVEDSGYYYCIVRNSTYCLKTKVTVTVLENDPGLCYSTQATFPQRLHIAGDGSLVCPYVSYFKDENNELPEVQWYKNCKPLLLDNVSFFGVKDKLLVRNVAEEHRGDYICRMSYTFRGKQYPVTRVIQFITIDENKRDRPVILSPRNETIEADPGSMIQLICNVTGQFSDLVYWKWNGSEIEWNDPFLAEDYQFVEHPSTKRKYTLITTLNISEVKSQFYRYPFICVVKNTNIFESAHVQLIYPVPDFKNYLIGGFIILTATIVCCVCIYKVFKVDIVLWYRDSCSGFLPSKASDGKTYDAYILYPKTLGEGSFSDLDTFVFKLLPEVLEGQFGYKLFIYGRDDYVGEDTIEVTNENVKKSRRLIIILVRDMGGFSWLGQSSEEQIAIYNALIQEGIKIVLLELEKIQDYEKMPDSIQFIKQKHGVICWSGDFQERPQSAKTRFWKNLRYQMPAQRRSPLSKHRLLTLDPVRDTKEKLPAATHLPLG
Series [8] concerns the target panel of 68 receptors (Rattus norvegicus, UniProt P15823). The following applies: Adrenergic α1B, rat, 10 μM.
For series [9], the target named is panel of 68 receptors (Rattus norvegicus, UniProt P43140). The following applies: Adrenergic α1A, rat, 10 μM.
panel of 68 receptors (Rattus norvegicus, UniProt P43140), sequence (P43140 whole entry): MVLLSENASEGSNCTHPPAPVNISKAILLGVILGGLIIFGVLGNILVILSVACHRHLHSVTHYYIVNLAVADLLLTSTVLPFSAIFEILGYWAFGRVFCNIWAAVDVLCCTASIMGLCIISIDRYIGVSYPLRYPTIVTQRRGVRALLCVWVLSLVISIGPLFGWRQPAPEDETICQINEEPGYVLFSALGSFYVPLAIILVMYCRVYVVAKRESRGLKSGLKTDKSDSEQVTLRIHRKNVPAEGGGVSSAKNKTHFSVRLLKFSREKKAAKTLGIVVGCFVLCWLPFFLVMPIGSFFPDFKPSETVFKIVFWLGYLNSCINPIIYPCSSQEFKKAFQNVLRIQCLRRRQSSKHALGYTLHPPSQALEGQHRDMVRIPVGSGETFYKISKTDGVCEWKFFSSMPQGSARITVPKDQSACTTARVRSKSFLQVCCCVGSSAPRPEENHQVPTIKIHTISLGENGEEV
The nature of series [10]: Cytotoxicity counterscreen, CellTiter Glo, 72 hr. The series is classed as cell-based, human. The conditions noted are these: human, bladder carcinoma 5637 cells (ATCC HTB-9); for CC50 at 72 h: read-out: Mammalian cell toxicity CC50. In outline: (§1)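 5637 bladder carcinoma cells were exposed to a 10-point compound series (300-0.58 μM, 0.5% DMSO) for 72 h. Viability was measured by CellTiter-Glo luminescence, and TC50 (CC50) was derived, with Hyamine as cytotoxic control.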

Series [11] relates to Bladder carcinoma 5637 cells. Put plainly: Cytotoxicity counterscreen, CellTiter Glo, 72 hr. The format is cell-based, human. The following applies: bladder carcinoma 5637 cells. In outline: as §1
(Counterscreens check selectivity or assay interference.)

A short description of a further series: PAMPA permeability. The format is in vitro ADME. The conditions noted are these: read-out: PAMPA Pe.
The nature of the next series: Plasma stability, human. The series is classed as in vitro ADME. The conditions noted are these: 1:1 Plasma:PBS, 37° C.
The test system of the next series is E. coli UTI89. Put plainly: Human serum sensitization (MTT). The series is classed as cell-based, Escherichia coli. The conditions noted are these: 50 μM compound, p=0.0067 versus control; listed as DU011. The protocol:
Human serum sensitization by capsule inhibitor treatment. Overnight cultures of UTI89 were diluted 1:100 and grown with or without 50 μM compound for approximately 1.5 hrs on a shaker at 37° C. Then 25 μL of anonymous, non-identified, sterile filtered pooled human serum (purchased from Equitech Bio) was added per 100 μL of growth media. This was returned to the shaker for another 3 hrs, after which 20 μL of 5 mg/mL MTT (3-(4,5-Dimethylthiazol-2-yl)-2,5-diphenyltetrazolium bromide) was added. MTT is reduced to purple formazan by bacterial reductase enzymes, thus measuring viable bacteria. This was shaken for another 15 min at 37° C. The sample was spun to remove the growth media, followed by two washes with PBS. The formazan crystals were dissolved in 100 μL of DMSO and measured at OD570.

The test system of series [12] is Methicillin Resistant Staphylococcus aureus (MRSA) Strain USA300. Kind of series: Growth inhibition of MRSA in buffered TSB medium. The series is classed as cell-based. As to the method:
FIG. 17. Inhibition of Methicillin Resistant Staphylococcus aureus (MRSA) Strain USA300 by ML317 (DU011). USA300 was grown shaking in TSB medium buffered at different pH as indicated in the figure with the addition of different concentrations of the chemical probe ML317. Growth was measured by absorbance readings as indicated.

Several values for one entry are separate records, joined by “and”; a condition that tells them apart may be missing. Equal values may be shown once. Entries after “also recorded” stand apart in the source; their conditions may differ. Read-outs that look alike come from different tables or passages of the source.

From patent publication US9688653B2, “Ethoxyphenyl thienyl compounds and methods for the treatment of bacterial infections” (Duke University, priority 2013, dated 2017) come the findings set out here.

One may read the CC50 as the concentration giving 50% cytotoxicity. For orientation: IC50 means the concentration that gives 50% inhibition. A higher IC50 goes with lower potency.

panel of 68 receptors (Homo sapiens, UniProt P29274), sequence (P29274 whole entry): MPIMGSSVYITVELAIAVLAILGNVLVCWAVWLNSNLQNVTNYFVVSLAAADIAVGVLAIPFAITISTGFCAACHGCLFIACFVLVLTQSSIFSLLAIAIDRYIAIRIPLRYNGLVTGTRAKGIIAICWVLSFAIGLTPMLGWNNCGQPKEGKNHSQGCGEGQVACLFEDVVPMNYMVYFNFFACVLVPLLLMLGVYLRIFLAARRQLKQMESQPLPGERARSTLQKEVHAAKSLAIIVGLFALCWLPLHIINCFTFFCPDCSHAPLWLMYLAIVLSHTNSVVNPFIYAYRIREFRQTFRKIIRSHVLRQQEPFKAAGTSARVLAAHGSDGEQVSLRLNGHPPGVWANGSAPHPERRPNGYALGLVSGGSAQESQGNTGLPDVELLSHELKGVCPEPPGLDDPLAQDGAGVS
panel of 68 receptors (Rattus norvegicus, UniProt P15823), sequence (P15823 whole entry): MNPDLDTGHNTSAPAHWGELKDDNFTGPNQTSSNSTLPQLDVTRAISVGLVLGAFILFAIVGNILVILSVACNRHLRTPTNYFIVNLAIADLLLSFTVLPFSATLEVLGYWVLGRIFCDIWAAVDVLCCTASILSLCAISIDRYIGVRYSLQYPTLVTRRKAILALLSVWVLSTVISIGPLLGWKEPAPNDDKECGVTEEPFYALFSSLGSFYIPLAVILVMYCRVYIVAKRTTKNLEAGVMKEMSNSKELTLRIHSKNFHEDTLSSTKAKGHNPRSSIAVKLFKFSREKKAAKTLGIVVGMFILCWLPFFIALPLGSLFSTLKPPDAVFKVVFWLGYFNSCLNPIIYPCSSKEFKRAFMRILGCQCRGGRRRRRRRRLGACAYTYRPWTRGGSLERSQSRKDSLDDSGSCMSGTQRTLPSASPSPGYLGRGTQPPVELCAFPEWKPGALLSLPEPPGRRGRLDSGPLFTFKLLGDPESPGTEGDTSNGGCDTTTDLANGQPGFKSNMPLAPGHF
panel of 68 receptors (Homo sapiens, UniProt P30542), sequence (P30542 whole entry): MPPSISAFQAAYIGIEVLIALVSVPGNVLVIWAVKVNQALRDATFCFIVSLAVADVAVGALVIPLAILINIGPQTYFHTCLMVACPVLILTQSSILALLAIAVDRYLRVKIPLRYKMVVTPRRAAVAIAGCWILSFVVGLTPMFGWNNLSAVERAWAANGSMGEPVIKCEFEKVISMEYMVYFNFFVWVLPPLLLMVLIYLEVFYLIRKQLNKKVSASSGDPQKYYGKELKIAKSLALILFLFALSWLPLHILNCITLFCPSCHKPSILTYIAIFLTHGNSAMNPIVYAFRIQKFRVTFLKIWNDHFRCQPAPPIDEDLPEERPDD
panel of 68 receptors (Homo sapiens, UniProt P08172), sequence (P08172 whole entry): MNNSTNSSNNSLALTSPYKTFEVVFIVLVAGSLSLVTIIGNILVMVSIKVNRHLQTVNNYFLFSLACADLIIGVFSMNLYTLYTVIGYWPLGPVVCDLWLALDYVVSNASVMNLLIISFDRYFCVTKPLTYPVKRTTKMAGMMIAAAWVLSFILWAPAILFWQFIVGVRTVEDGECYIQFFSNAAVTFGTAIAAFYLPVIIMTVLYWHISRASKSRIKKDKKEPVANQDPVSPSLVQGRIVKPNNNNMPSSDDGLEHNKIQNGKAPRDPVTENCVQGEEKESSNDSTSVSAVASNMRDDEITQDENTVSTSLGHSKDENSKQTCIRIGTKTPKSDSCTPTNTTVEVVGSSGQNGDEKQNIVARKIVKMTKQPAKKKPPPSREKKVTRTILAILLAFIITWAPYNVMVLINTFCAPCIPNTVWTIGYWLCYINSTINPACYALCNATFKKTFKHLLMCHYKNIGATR

Take `CCOc1ccc(-c2cc(NC(=O)c3c(F)cccc3F)c(C(=O)O)s2)cc1` [KUC107784N-02]: the “% Inh.” value on panel of 68 receptors [1] is recorded as −8%; at panel of 68 receptors [2], 19%; at panel of 68 receptors [3], 28%; at panel of 68 receptors [4], 4%; on panel of 68 receptors [5], −11%; on panel of 68 receptors [6] it was 3%. Besides, the “% Inh.” value on panel of 68 receptors [7] was determined as 3%; at panel of 68 receptors [8], 0%; at panel of 68 receptors [9], 16%.

Consider `CCOc1ccc(-c2cc(NC(=O)c3c(F)cccc3F)c(C(=O)O)s2)cc1` [ML317, 3-(2,6-difluorobenzamido)-5-(4-ethoxyphenyl)thiophene-2-carboxylic acid], for which the CC50 at 72 h in series [10] (commercial sample, SID 103147605) stood at 47.2 ± 7.2 µM; in series [10] (synthesized sample, SID 126497311) it was 51.6 ± 13.7 µM. Further, the half-maximal inhibitory concentration (IC50) at 72 h in [10] (first round of synthetic analogues, n = 3) stood at 51.6 µM; in series [10] (purchased analogue series, n = 2) it was 47.2 µM. In addition, the “Cytotoxicity CC50 / TC50 / IC50” value in [11] is 47.2 ± 7.2 µM and 51.6 µM; in [11] (listed as CID 23602075) it was 47.2 ± 7.2 µM. The Papp in the series “PAMPA permeability” (Donor pH 5.0, Acceptor pH 7.4, RT) is 14 ×10⁻⁶ cm/s; in the series “PAMPA permeability” (Donor pH 6.2, Acceptor pH 7.4, RT), 209 ×10⁻⁶ cm/s; in “PAMPA permeability” (pH 7.4, Donor pH 7.4, Acceptor pH 7.4, RT), 52 ×10⁻⁶ cm/s. The “Plasma Stability, % remaining at 3 hr” value in the series “Plasma stability, human” was 95.3 % remaining. In addition, in the series on E. coli UTI89, the “Sensitivity of UTI89 to pooled human serum (MTT)” value is given as “further increased serum-mediated killing; also recorded: significantly more sensitive”. In addition, the “Mode of action on MRSA (culture of bacteria from the experiments)” value in [12] was “bactericidal”. The “Concentration sufficient to produce inhibition of MRSA” value in series [12] (pH 5 and 5.5, TSB medium) fell in the range of 25 to 50 µM. The “Growth of MRSA” value in series [12] (pH 7, 100 and 200 μM) is reported as “inhibited growth”.
